Experimental data: patent publication US20090149420A1, “NOVEL COMPOSITIONS AND USE THEREOF FOR THE TREATMENT, CO-TREATMENT OR PREVENTION OF INFLAMMATORY DISORDERS” (priority 2007, published 2009)

Tests used:
Assay type in all cases: cell-based
SOX-9 = SOX-9 gene expression (mRNA, RT-PCR) in normal human chondrocytes; conditions: 500 mg/L; % of unstimulated cells set at 100%
Method: (§1) The effect of a MA/HO (1:3 w/w) mixture in combination with chondroitin was tested on the expression of human aggrecan, collage I, collagen II, or chondrocyte transcription factors (SOX-6, -9) in vitro in normal human chondrocytes (derived from knee) (CC-2550; Cambrex, respectively). A control experiment without the compounds was done concomitantly to compare the expression of these genes (percentage expression of gene in controls was set to 100%). Normal human chondrocytes were cultured for 4 hours with MA/HO (1:3 w/w) (at 12.5 μmol/L), chondroitin (at 500 mg/L) as well as with both. The level of mRNA was determined by RT-PCR (Richard et al. Mol. Nutr. Food Res. 49, 431-442, 2005) and expressed relative to the level observed in cells cultured without the substances. The given values indicate the level of gene expression (in % of unstimulated cells [set at 100%] for anabolic and anti-catabolic genes; in % of IL1β-treated cells [set at 100%], for catabolic genes).

Aggrecan = Aggrecan gene expression (mRNA, RT-PCR) in normal human chondrocytes; conditions: 500 mg/L; stim., 4 hrs; control set at 100%
Method: as §1

MMP-2 = MMP-2 gene expression (mRNA, RT-PCR) in normal human chondrocytes; conditions: 500 mg/L; 4 d; % of IL1β-treated cells set at 100%
Method: as §1, with “Normal human chondrocytes were cultured for 4 hours with MA/HO (1:3 w/w) (at 12.5 μmol/L), chondroitin (at 500 mg/L) as well as with both.” left out

[1] = tested on: murine macrophage cell line, RAW264.7; experiment: Inhibition of nitric oxide synthesis in LPS-stimulated RAW264.7 macrophages (Griess reaction); conditions: single substance
Method: The anti-inflammatory effect of a mixture of MA/HO (1:3 w/w) in combination with chondroitin sulfate was determined in cellular assays by measuring the inhibition of the synthesis of nitric oxide. Nitric oxide (NO) is a hallmark of inflammation in various chronic inflammatory diseases including various forms of arthritis, gastro-intestinal diseases and metabolic syndrome X.
The effects on the inflammatory response were tested in cellular assays using a murine macrophage cell line, RAW264.7. The cells were purchased from ATCC (Manassas, Va., USA) and cultured in DMEM containing streptomycin/penicillin, non-essential amino acids and 10% fetal calf serum (FCS). In order to test a large range of concentration of a mixture of MA and HO (1:3) as well as mixtures thereof, cells (˜50,000/well) were seeded into flat-bottomed microtiter plates and cultured for one day. […] Concentrations of nitrite which was rapidly formed from nitric oxide released by cells were determined by the Griess reaction using sodium nitrite as standard. Briefly, 50 μl of supernatant was mixed with Griess reagent 1 (25 μL) and Griess reagent 2 (25 μL), centrifuged and the optical density at 540 nm determined. […] IC50 values for LPS-stimulated cells were calculated using a […] least-square fitting equation [y=A+((B−A)/(1+((C−x)̂D))] for best-fit curves (Excel fit software program). […]

TIMP-1 = TIMP-1 gene expression (mRNA, RT-PCR) in normal human chondrocytes; conditions: 500 mg/L; unstim., 4 d; % of unstimulated cells set at 100%
Method: as §1, with “Normal human chondrocytes were cultured for 4 hours with MA/HO (1:3 w/w) (at 12.5 μmol/L), chondroitin (at 500 mg/L) as well as with both.” left out

ADAMTS-5 = ADAMTS-5 gene expression (mRNA, RT-PCR) in normal human chondrocytes; conditions: 500 mg/L; stim, 4 hrs; % of IL1β-treated cells set at 100%
Method: as §1

chondroitin sulfate
SOX-9 gene expression level (SOX-9): 147% | Aggrecan gene expression level (Aggrecan): 62% | MMP-2 gene expression level (MMP-2): 93% | IC50 Nitric Oxide ([1]; RAW264.7, LPS 1 μg/ml, 24 hours): >50 µg/mL | anti-inflammatory activity (inhibition of nitric oxide), in words ([1]; RAW264.7, LPS-stimulated): marginal anti-inflammatory | TIMP-1 gene expression level (TIMP-1): 106% | ADAMTS-5 gene expression level (ADAMTS-5): 107%
